Results published in US5312919A, “Photooxidation products and derivatives thereof of merocyanine-540, their preparation and uses” (priority 1992, dated 1994).
Read-outs that look alike come from different tables or passages of the source.

Columns and labels:
[1] = Cytotoxicity on normal human peripheral blood mononuclear cells (trypan blue dye exclusion); type: cell-based; conditions: human, peripheral blood mononuclear cells, overnight, 37° C., read-out: % cell kill (mean ± S.E.M.)
Experimental: (§1) Preactivated MC 540 is abbreviated as pMC 540.
(§2) Merocil and Merodantoin were dissolved in cremophor EL whereas pMC 540 was prepared in 10% aqueous ethanol. […] Fresh human peripheral mononucleas cells (1×10^6 cells/ml) were treated with indicated concentration of compounds. After overnight incubation at 37° C., cell viability was determined by trypan blue dye exclusion method.

[2] = system: normal human peripheral blood mononuclear cells; assay: as above; type: cell-based; conditions: doses of Table 1
Experimental: as §1, §2

U266B1 (myeloma) = assay: Inhibition of cell proliferation, U266B1 (MTT assay); type: cell-based; conditions: 24 h, read-out: % inhibition of cell proliferation
Experimental: (§3) Preactivated MC 540 is abbreviated as pMC 540. […] 52: 831-38 (1990); and T. Mosmann, J. Immulog. Methods 65: 55-63 (1983).
(§4) Each cell type (1×10^6 cells/ml; in triplicate) was treated with indicated concentrations of merocil or merodantoin. […] The cytotoxicity in vehicle only (cremophor EL) controls was not detectable at highest dose tested.

[3] = system: JEG-3 (choriocarcinoma, human); assay: Inhibition of cell proliferation, JEG-3 (MTT assay); type: cell-based; conditions: read-out: % inhibition of cell proliferation
Experimental: as §3
(§5) Each cell type (1×10^6 cells/ml; in triplicate) was treated with indicated concentrations of merocil or merodantoin. After overnight (20 hr.) or 5 day incubation periods, the cell viability was determined by MTT assay and calculated as a percentage of untreated controls. The toxicity in vehicle only (cremophor EL) controls was not detectable at highest dose tested.

[4] = system: BT-20 (breast, adenocarcinoma); assay: Inhibition of cell proliferation, BT-20 (MTT assay); type: cell-based; conditions: Homo sapiens, read-out: % inhibition of cell proliferation
Source text: Preactivated MC 540 is abbreviated as pMC 540. […] 52: 831-38 (1990); and T. Mosmann, J. Immulog. Methods 65: 55-63 (1983). […]

MT-4 cells = assay: Effect on viability of MT-4 cells; type: cell-based; conditions: experimental conditions of Table 8
Experimental: (§6) Cell free human immunodeficiency virus (HIV-1) was either left untreated or treated with indicated doses of Merocil or Merodantoin for one hour at 37° C. and added to MT-4 target cells. After 4 hour incubation at 37° C., the cells were washed three times and further incubated in drug free fresh growth medium (complete RPMI-1640) at 37° C. for 4 days. On day four, 50% of the culture supernatant was replaced with fresh growth medium to prevent cell death due to possible nutrient depletion. The viability of the cell was determined on day 11 by MTT assay. […] The viability of the MT-4 cells was not affected by Merocil or Merodantoin under the experimental conditions described above.

[5] = system: DU 145 (prostate, carcinoma, human); assay: Inhibition of cell proliferation, DU 145 (MTT assay); type: cell-based; conditions: read-out: % inhibition of cell proliferation
Experimental: as §3, §5

[6] = system: human Burkitt lymphoma Daudi cells; assay: Cytotoxic effects on human Burkitt lymphoma Daudi cells (MTT assay); type: cell-based
Experimental: Human Burkitt Lymphoma Daudi cells (1×10^6 cells/ml) were treated with different concentrations of Merodantoin. After overnight incubation at 37° C., the tumor cells kill was determined by MTT assay.
Human Burkitt Lymphoma Daudi cells (1×10^6 cells/ml) were treated with different concentrations of Merocil. After overnight incubation at 37° C., the tumor cells kill was determined by MTT assay.
Each cell type (1×10^6 cells/ml; in triplicate) was treated with indicated concentrations of Merocil or Merodantoin. After overnight (20 hr.) or 5 day incubation periods, the cell viability was determined by MTT assay and calculated as a percentage of untreated controls.

[7] = system: human immunodeficiency virus (HIV-1); assay: Inactivation of cell free human immunodeficiency virus (viability of MT-4 target cells, MTT assay); type: cell-based
Experimental: as §3, §6

certain tumor cells = assay: Inhibition of proliferation of tumor cells (overall conclusion); type: cell-based
Source text: as §3

8226 (multiple myeloma) = assay: Inhibition of cell proliferation, 8226 (MTT assay); type: cell-based; conditions: 24 h, read-out: % inhibition of cell proliferation
Experimental: as §3, §4

[8] = system: C-33A (carcinoma cervix, human); assay: Inhibition of cell proliferation, C-33A (MTT assay); type: cell-based; conditions: read-out: % inhibition of cell proliferation
Experimental: as §3, §5

[9] = system: H.S. Sultan (multiple myeloma); assay: Inhibition of cell proliferation, H.S. Sultan (MTT assay); type: cell-based; conditions: 24 h, read-out: % inhibition of cell proliferation
Experimental: as §3, §4

[10] = system: MS 751 (cervix, carcinoma, human); assay: Inhibition of cell proliferation, MS 751 (MTT assay); type: cell-based; conditions: read-out: % inhibition of cell proliferation
Experimental: as §3, §5

[11] = system: L1210 mouse leukemia cells; assay: Combined effect on L1210 mouse leukemia cells (MTT assay); conditions: MC = 12.5 μg/ml; MD = 25 μg/ml; MZ = 25 μg/ml; overnight
Experimental: The biological activities of the photooxidation products of MC 540 were determined. Preactivated MC 540 is abbreviated as pMC 540. Assays of antitumor activities of the products were carried out according to published standard methods.
Mouse leukemia L1210 cells (1 × 10^6 cells/ml) were treated wit
different combinations of the indicated compounds (isolated from
preactivated merocyanine 540). After overnight incubation the cell kill

[12] = Homo sapiens, Daudi, read-out: % Cell Kill (means ± S.D.)

In the case of CCCCN1C(=O)C(O)(OC)C(=O)N(CCCC)C1=S [Merocil, N,N'-Dibutyl-4,5 dihydro-5-hydroxy-5-methoxy-4-oxo-2-thiouracil], the cytotoxicity ([1]; 0.78 μg/ml) is reported as 2.67 ± 0.8%, the cytotoxicity ([1]; 1.56 μg/ml) is reported as 5 ± 0.67% and the cytotoxicity ([1]; 3.13 μg/ml) is reported as 4 ± 0.67%. For the same molecule, the cytotoxicity ([1]; 6.25 μg/ml) was 6%, the cytotoxicity ([1]; 12.5 μg/ml) was 5 ± 0.71% and the “toxicity to normal human peripheral blood mononuclear cells” value [2] was “relatively non-toxic”. For the same molecule, the inhibition at 0.78 µg/mL (U266B1 (myeloma)) was 3%, the inhibition at 1.56 µg/mL (U266B1 (myeloma)) was 6% and the inhibition at 3.13 µg/mL (U266B1 (myeloma)) was 21%. It also gave an inhibition at 6.25 µg/mL (U266B1 (myeloma)) of 8%, an inhibition at 12.5 µg/mL (U266B1 (myeloma)) of 8% and an inhibition at 0.78 µg/mL ([3]; JEG-3, 20 h) of 0%. The inhibition at 1.56 µg/mL ([3]; JEG-3, 20 h) was 3%, the inhibition at 3.13 µg/mL ([3]; JEG-3, 20 h) was 32% and the inhibition at 6.25 µg/mL ([3]; JEG-3, 20 h) was 68%. The inhibition at 12.5 µg/mL ([3]; JEG-3, 20 h) was 86%, the inhibition at 0.78 µg/mL ([3]; JEG-3, 120 h) was 8% and the inhibition at 1.56 µg/mL ([3]; JEG-3, 120 h) was 11%. The inhibition at 3.13 µg/mL ([3]; JEG-3, 120 h) was 11%, the inhibition at 6.25 µg/mL ([3]; JEG-3, 120 h) was 51% and the inhibition at 12.5 µg/mL ([3]; JEG-3, 120 h) was 86%. It also gave an inhibition at 0.78 µg/mL ([4]; BT-20, 48 h) of 3%, an inhibition at 1.56 µg/mL ([4]; BT-20, 48 h) of 0% and an inhibition at 3.13 µg/mL ([4]; BT-20, 48 h) of 2%. For the same molecule, the inhibition at 6.25 µg/mL ([4]; BT-20, 48 h) was 0%, the inhibition at 12.5 µg/mL ([4]; BT-20, 48 h) was 11% and the inhibition at 0.78 µg/mL ([4]; BT-20, 96 h) was 11%. The inhibition at 1.56 µg/mL ([4]; BT-20, 96 h) was 22%, the inhibition at 3.13 µg/mL ([4]; BT-20, 96 h) was 41% and the inhibition at 6.25 µg/mL ([4]; BT-20, 96 h) was 20%. The inhibition at 12.5 µg/mL ([4]; BT-20, 96 h) was 8%, the “viability of the MT-4 cells” value (MT-4 cells) was “not affected” and the inhibition at 0.78 µg/mL ([5]; DU-145, 20 h) was 0%. The inhibition at 1.56 µg/mL ([5]; DU-145, 20 h) was 0%, the inhibition at 3.13 µg/mL ([5]; DU-145, 20 h) was 0% and the inhibition at 6.25 µg/mL ([5]; DU-145, 20 h) was 5%. For the same molecule, the inhibition at 12.5 µg/mL ([5]; DU-145, 20 h) was 3%, the inhibition at 0.78 µg/mL ([5]; DU-145, 120 h) was 26% and the inhibition at 1.56 µg/mL ([5]; DU-145, 120 h) was 33%. The inhibition at 3.13 µg/mL ([5]; DU-145, 120 h) was 71%, the inhibition at 12.5 µg/mL ([5]; DU-145, 120 h) was 93% and the “growth inhibition of cultured Daudi lymphoma cells” value ([6]; 12.5 μg/ml) was “virtually complete growth inhibition”. For the same molecule, the cytotoxicity at 0.78 µg/mL [6, 12] was 4.75 ± 3.2%, the cytotoxicity at 1.56 µg/mL [6, 12] was 16.5 ± 9.45% and the cytotoxicity at 3.13 µg/mL [6, 12] was 36.8 ± 16.1%. The cytotoxicity at 6.25 µg/mL [6, 12] was 87.2 ± 9.9%, the cytotoxicity at 12.5 µg/mL [6, 12] was 100% and the “inactivation of cell free HIV” value ([7]; 75 μg/ml dose) was “virtually complete inactivation of the virus”. The “inactivating human immunodeficiency virus (HIV-1)” value ([7]; conclusion) was “effective”, the “inhibiting the proliferation of certain tumor cells” value (certain tumor cells) was “effective” and the inhibition at 0.78 µg/mL (8226 (multiple myeloma)) was 17%. It also gave an inhibition at 1.56 µg/mL (8226 (multiple myeloma)) of 24%, an inhibition at 3.13 µg/mL (8226 (multiple myeloma)) of 26% and an inhibition at 6.25 µg/mL (8226 (multiple myeloma)) of 25%. It also gave an inhibition at 12.5 µg/mL (8226 (multiple myeloma)) of 55%, an inhibition at 0.78 µg/mL ([8]; 20 h) of 2% and an inhibition at 1.56 µg/mL ([8]; 20 h) of 9%. It also gave an inhibition at 3.13 µg/mL ([8]; 20 h) of 35%, an inhibition at 6.25 µg/mL ([8]; 20 h) of 36% and an inhibition at 12.5 µg/mL ([8]; 20 h) of 49%. The inhibition at 0.78 µg/mL ([8]; 120 h) was 23%, the inhibition at 1.56 µg/mL ([8]; 120 h) was 26% and the inhibition at 3.13 µg/mL ([8]; 120 h) was 46%. It also gave an inhibition at 6.25 µg/mL ([8]; 120 h) of 89%, an inhibition at 12.5 µg/mL ([8]; 120 h) of 97% and an inhibition at 0.78 µg/mL [9] of 23%. It also gave an inhibition at 1.56 µg/mL [9] of 28%, an inhibition at 3.13 µg/mL [9] of 24% and an inhibition at 6.25 µg/mL [9] of 63%. The inhibition at 12.5 µg/mL [9] was 68%, the inhibition at 0.78 µg/mL ([10]; MS751, 20 h) was 1% and the inhibition at 1.56 µg/mL ([10]; MS751, 20 h) was 7%. It also gave an inhibition at 3.13 µg/mL ([10]; MS751, 20 h) of 12%, an inhibition at 6.25 µg/mL ([10]; MS751, 20 h) of 20% and an inhibition at 12.5 µg/mL ([10]; MS751, 20 h) of 20%. It also gave an inhibition at 0.78 µg/mL ([10]; MS751, 120 h) of 10%, an inhibition at 1.56 µg/mL ([10]; MS751, 120 h) of 11% and an inhibition at 3.13 µg/mL ([10]; MS751, 120 h) of 12%. The inhibition at 6.25 µg/mL ([10]; MS751, 120 h) was 29%, the inhibition at 12.5 µg/mL ([10]; MS751, 120 h) was 89% and the “% Cell Kill” value [11] was 28%.
